Data: paper PMC3566787, “Efficient synthesis of phenylene-ethynylene rods and their use as rigid spacers in divalent inhibitors” (Beilstein Journal of Organic Chemistry, 2013)

Target: T1, LecA (Pseudomonas aeruginosa, UniProt Q05097)
T1 construct: FITC-labeled LecA
Assay: ELISA-type competition assay on a glycochip: inhibition of FITC-labeled LecA binding to a galactoside-functionalized surface

T1 sequence (Q05097 2-122): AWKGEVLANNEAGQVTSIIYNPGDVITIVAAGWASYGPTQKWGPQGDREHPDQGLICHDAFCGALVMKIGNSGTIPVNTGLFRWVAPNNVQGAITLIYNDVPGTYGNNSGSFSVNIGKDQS

`COCCOCCOc1cc(C#Cc2cc(OCCOCCOC)c(-c3cn(CCCO[C@@H]4O[C@H](CO)[C@H](O)[C@H](O)[C@H]4O)nn3)cc2OCCOCCOC)c(OCCOCCOC)cc1C#Cc1cc(OCCOCCOC)c(-c2cn(CCCO[C@@H]3O[C@H](CO)[C@H](O)[C@H](O)[C@H]3O)nn2)cc1OCCOCCOC` [compound 22, divalent ligand 22] gave an IC50 of 0.9 µM.
